In patent US8492341B2, “Amyloid-β binding peptides” (Alzyme Pty Ltd., priority 2006, dated 2013):

How the values were obtained:
[1] = In vitro peptide stability in 10% rodent brain homogenate; type: in vitro ADME, rat
Experimental: For the peptide stability assay in vitro, both 15merTNP and peptide analogue MP2 were incubated separately with fresh 10% rodent brain homogenate to model degradation in tissues. In order to create a physiological dose of peptide in the in vitro assay, both radioactive (^3H-labelled; hot) and non-radioactive (cold) peptides were combined in a set ratio. Cold peptide was added at a dose of […] per ml of 10% brain homogenate. Hot peptide was added at a dose of 250 μCi per ml 10% brain homogenate. Following the addition of hot and cold peptide; the homogenate was vortexed and incubated for different time points. The reaction was stopped by adding complete protease inhibitor cocktail and the samples analysed.
The biological stability of the peptides was evaluated by incubating them (90 nmol) in fresh 10% rodent brain homogenate for different times at 37° C. The amount of intact peptide was estimated by running the supernatant of the homogenate on a 16% Tricine gel to separate peptide that had not had its amino acid sequence degraded. FIG. 3 illustrates the relative stability of 15merTNP and peptide analogue MP2 over two hours run on a 16% Tricine gel from time 0-120 min with samples run in duplicate. The values correspond to the in vitro half-life, which is defined as the time needed for 50% degradation of the peptide.

Aβ = Aβ (Homo sapiens, UniProt P05067); test: Copper-induced Aβ oligomer generation (SDS-PAGE, WO2 immunoblot); type: biochemical; conditions: Aβ 5 uM, Cu+2 25 μM, 0-1000 μM peptide, 37 C, 24 hours; vs reverse peptide control
Chain of Aβ (P05067 672-713 limits assumed): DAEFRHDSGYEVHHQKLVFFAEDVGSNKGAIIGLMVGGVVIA
Experimental: Incubation of Aβ with copper generates cross-linked oligomeric species (Atwood et al., 2000: Cell Mol Biol, 46: 777-783; Atwood et al., 2004: Biochemistry, 43: 560-568). In this experiment, Aβ (5 uM) is incubated with Cu+2 (25 μM) and 0-1000 μM of the modified peptides at 37 C for 24 hours. After the incubation period, 20 ng is loaded onto an SDS-PAGE gel and immunoblotted with WO2 antibody. Compared to the reverse peptide control, all the modified peptides inhibited the generation of Aβ oligomers at various concentration.

PS/APP transgenic mice = test: Efficacy study: i.c.v. infusion in PS/APP transgenic mice, Aβ and GFAP immunohistochemistry; type: in vivo; conditions: 6-month-old PS/APP mice, 28 days, vs Vehicle (PBS)
Excerpt: Peptide analogue MP2 [Ac-Asn-Arg-Thr-Pro-Gln-Met-Leu-Lys-Arg-NH2 (SEQ ID NO:2)] was delivered directly into the brain by i.c.v administration. For i.c.v infusion into the cerebrospinal fluid, a cannula is inserted into the right lateral ventricle of the brain (antero-posterior: −0.3 mm; medium-line: −1 mm; dorso-ventral: −2.2 mm) of 3-month and 6-month old PS/APP transgenic mice using a Kopf (Tujunga, Calif.) stereotaxic instrument (Permanne et al., 2002 “Reduction of amyloid load and cerebral damage in a transgenic mouse model of Alzheimer's disease by treatment with a β-sheet breaker peptide” FASEB J.).
The coordinates are measured from the Bregma and the surface of the skull according to the brain atlas of Franklin and Paxinos (The Mouse Brain in Stereotaxic Coordinates (1997) Academic Press, San Diego). […]
For immunohistochemistry, tissue sections are cut and series of sections processed for peroxidase immunohistochemistry with antibodies specific for beta amyloid (1-42) and astrocytic activation (GFAP). […] Reactive astrocytes (forming a halo around Aβ deposits) were detected using antibody GFAP (1:500 dilution in DAKO antibody diluent; polyclonal, DAKO); Aβ detected using affinity purified WO2 antibody (1:10,000 dilution in Tris buffer (pH 7.6); raised against amino acid residues 5-8 of human Aβ, monoclonal). […]

M17 Neuroblastoma cells = test: MTS cell viability assay, cell death induced by human Aβ1-42 (40 μM); type: cell-based
Experimental: M17 Neuroblastoma cells were seeded in a 48 well plate at a density of 50,000 cells per well. The plate was incubated for 24 hours at 37° C. in media (OPTI-MEM) containing 10% FCS. The next day the cells were treated with human Aβ1-42 (40 μM) in the presence or absence of the peptides 15merTNP or peptide analogue MP2 (FIG. 2). The peptides were provided at concentrations ranging from 20-400 μM prepared in Neuro basal media containing B27 supplement without antioxidants. Following incubation (4 days at 37° C.), cell viability was assessed using the CellTiter 96® AQueous One Solution cell proliferation assay (MTS; Promega, Wis., USA) as per manufactures instructions. Briefly, 200 μl of MTS reagent (1/10 dilution) was added directly to the culture wells and the plate incubated for 3 hours at 37° C. Following incubation, 150 μl of the solution was transferred to a 96 well plate and the absorbance is determined spectrophotometrically at 490 nm.
Similar to the MTT assay, the MTS assay is a colorimetric method for determining the number of viable cells in proliferation or cytotoxicity assays. The principle of the MTS assay is the same as the MTT assay, except for the tetrazolium compound that is bio-reduced by the mitochondria of the cells, forming a coloured formazan product that is soluble (rather than insoluble for the MTT assay) in tissue culture medium. This conversion is accomplished by NADPH or NADH produced by dehydrogenase enzymes in metabolically active cells: Berridge M V. And Tan A. S. (1993) Characterisation of the cellular reduction of 3-(4,5-dimethylthiazol-2-yl)-2,5-diphenyltetrazolium bromide (MTT): Subcellular localisation, substrate dependence and involvement of mitochondrial electron transport in MTT reduction. Arch. Biochem. Biophys. 303, 474-82.
The effect of human Aβ1-42 (40 μM) on cell viability was determined in triplicate in each of the 10 MTS assays (i.e. n=30) performed in this study. All data are presented as means±SEM.
The effect of peptide analogue MP2 to protect against human Aβ42-induced toxicity was then determined using the MTS assay in triplicate in two separate experiments for all doses (i.e. n=6), unless otherwise specified. The effectiveness of MP2 was compared against the 15merTNP.

Ac-NRTPQMLKR-NH2 [MP2, Ac-Asn-Arg-Thr-Pro-Gln-Met-Leu-Lys-Arg-NH2]
Stability in rat brain homogenate (in vitro half-life) ([1]; 10% brain homogenate, 37° C., listed as Peptide analogue MP2): >24 h
stability relative to 15merTNP ([1]; 10% rodent brain homogenate, 24 hour time period): significantly more stable
half-life at 2.5 mmol per ml ([1]; rat, fresh 10% brain homogenate, 10% brain homogenate, 37° C.): > 24 h
inhibition of Aβ oligomer formation (Aβ): most potent
reduction in the estimated total number of Aβ immunoreactive deposits (PS/APP transgenic mice; 60 nmoles daily i.c.v.): 26.4%
total number of GFAP immunoreactive halos (PS/APP transgenic mice; 60 nmoles/day i.c.v.): reduction in the total number of GFAP immunoreactive halos, although significance was only reached in the middle and posterior cortical regions
maximum reduction in cell toxicity associated with human Aβ1-42 (M17 Neuroblastoma cells; Aβ1-42 40 μM): around 15%
effect on cell death associated with human Aβ1-42 (M17 Neuroblastoma cells; peptide concentration ≧200 μM, P<0.05): significantly reduced cell death
effect on cell death associated with human Aβ1-42 (M17 Neuroblastoma cells; peptide concentrations ≦80 μM): no effect
